In the assay the test system is primary human monocytes. In words: Immunomodulation in human monocytes: cytokine/PGE2 release measured by ELISA after 24 h incubation. Type of assay: cell-based. The following applies: up to the highest concentration studied (0.68 μg/mL and 0.59 μg/mL respectively). As for the experimental part: Monocyte cell cultures: Primary human monocytes were prepared from the buffy coat of healthy human blood donors using a standardized procedure.
Cells were seeded in 24-well plates at a density of 2200000 cells/well for ELISA measurements. Monocytes were incubated with test elements (5 different concentrations) for 24 h. LPS (10 ng/mL, Salmonella typhimurium SL1181) served as a positive control for cytokine release. After 24 h, supernatants were removed, centrifuged and studied for IL-1β, MCP-1, IL-6, TNF and IL-8 concentrations by ELISA using the manufacturer's protocol (n=6, 3 different donors).
For orientation: In an ELISA, binding on a coated surface is turned into a signal by an enzyme label.
In the case of `[Se]` [selenium], the “effect on basal cytokine release in human monocytes” value is recorded as “Neither selenium, vitamin B6 nor vitamin D3 had any effect”.
To `Cc1ncc(CO)c(CO)c1O.Cl` [vitamin B6] belongs “Neither selenium, vitamin B6 nor vitamin D3 had any effect”; to `C=C1CC[C@H](O)C/C1=C/C=C1\CCC[C@]2(C)[C@@H]([C@H](C)CCCC(C)C)CC[C@@H]12` [vitamin D3, cholecalciferol], “Neither selenium, vitamin B6 nor vitamin D3 had any effect”.

For the origin of these results see patent US20240165174A1, “[…]-BASED COMPOSITION AND USES THEREOF FOR R[…]” (priority 2021, published 2024).
